ChEMBL document CHEMBL4359836, “Synthesis and Biological Assessment of Pyrrolobenzoxazine Scaffold as a Potent Antioxidant” (J Med Chem, 2019)
The source made the active and inactive calls. The calls are words filed in the database; no cut-off is given here.

Assays:
[1] = Pro-oxidant activity in pH 7.4 potassium phosphate buffer assessed as reduction in CuCl2/ascorbic acid induced hydroxyl radical scavenging activity at > 66 uM in presence of deoxyribose by measuring deoxyribose degradation product formation after 20 mins by thiobarbituric acid based absorbance analysis
Mitochondria [2] = assay: Antioxidant activity in goat cardiac mitochondria assessed as inhibition of CuCl2/ascorbic acid-induced lipid peroxidation at 8.25 uM after 1 hr by thiobarbituric acid based UV-Visible spectrophotometric method (reference value: 60.11%); format: functional, subcellular; details: Capra hircus, Heart, Mitochrondria
[3] = Effect on cytochrome c oxidoreductase activity in goat cardiac mitochondria at 8.25 to 66 uM incubated for 1 hr and measured at 10 secs time interval for 90 secs by spectrophotometric analysis; format: ADME, subcellular, Capra hircus, Heart, Mitochrondria
Mitochondria [4] = assay: Antioxidant activity in goat cardiac mitochondria assessed as reversal of CuCl2/ascorbic acid-induced reduction in ICDH level at 33 uM using isocitrate as substrate after 1 hr relative to control; format: functional, subcellular; details: Capra hircus, Heart, Mitochrondria
[5] = Binding affinity to Cu2+ assessed as binding constant K1 at 66 uM in presence of ascorbic acid/CuCl2 by isothermal titration calorimetry
Mitochondria [6] = assay: (§1) Protective activity against CuCl2/ascorbic acid-induced apoptotic alteration in goat cardiac mitochondria assessed as reversal of CuCl2/ascorbic acid-induced reduction in cytochrome c oxidase activity at 66 uM measured at 10 secs time interval for 90 secs by spectrophotometric analysis relative to control; format: functional, subcellular; details: Capra hircus, Heart, Mitochrondria
[7] = Effect on intactness in goat cardiac mitochondria at 66 uM after 1 hr by Janus green-B staining based confocal microscopic method; format: ADME, subcellular, Capra hircus, Heart, Mitochrondria
[8] = Toxicity in goat cardiac mitochondria assessed as effect on calcium accumulation at 66 uM after 60 mins by calcein AM dye-based flow cytometric analysis; format: subcellular, Capra hircus, Heart, Mitochrondria; details: 1 h
Mitochondria [9] = assay: as §1, with “oxidoreductase” for “oxidase”, “uM incubated for 1 hr and” for “uM”, “(reference value: 47.82%)” for “relative to control”; format: functional, subcellular; set-up: scale not given: the % may be the effect or the level left; details: Capra hircus, Heart, Mitochrondria
[10] = Effect on PDH levels in goat cardiac mitochondria at 8.25 to 66 uM using sodium pyruvate as substrate after 1 hr by spectrophotometric analysis; format: ADME, subcellular, Capra hircus, Heart, Mitochrondria
Capra hircus [11] = species on record: Capra hircus; assay: Effect on alpha-ketoglutarate dehydrogenase in goat cardiac mitochondria assessed as reversal of CuCl2/ascorbic acid induced reduction in Km at 66 uM using alpha-ketoglutarate as substrate after 1 hr by Lineweaver-Burk double reciprocal plot analysis; details: Heart
Mitochondria [12] = assay: Protective activity against CuCl2/ascorbic acid-induced oxidative damage in goat cardiac mitochondria assessed as reversal of CuCl2/ascorbic acid-induced reduction in fluorescence intensity at 66 uM after 1 hr by Janus green-B staining based confocal microscopic method relative to control; format: functional, subcellular; details: Capra hircus, Heart, Mitochrondria
Capra hircus [13] = species on record: Capra hircus; assay: Effect on ICDH in goat cardiac mitochondria assessed as reversal of CuCl2/ascorbic acid induced reduction in Vmax at 66 uM using isocitrate as substrate after 1 hr by Lineweaver-Burk double reciprocal plot analysis; details: Heart
[14] = Antioxidant activity in pH 7.4 phosphate buffer assessed as DPPH radical scavenging activity by measuring trolox equivalent antioxidant capacity by measuring IC50 Trolox/IC50 test compound ratio after 30 mins by spectrophotometric analysis; format: functional
Mitochondria [15] = assay: Protective activity in goat cardiac mitochondria assessed as inhibition of CuCl2/ascorbic acid-induced convoluted membranes at 66 uM incubated for 1 hr by scanning electron microscopy; format: functional, subcellular; details: Capra hircus, Heart, Mitochrondria
[16] = Antioxidant activity in pH 10 Tris-HCl buffer assessed as superoxide anion radical scavenging activity by measuring rate of epinephrine auto-oxidation by spectrophotometric analysis; format: functional
[17] = Effect on manganese superoxide dismutase-like activity in cardiac mitochondria at 8.25 to 66 uM after 1 hr by pyrogallol autoxidation method relative to control; format: ADME, subcellular, Capra hircus, Heart, Mitochrondria; details: goat
Mitochondria [18] = assay: Antioxidant activity in goat cardiac mitochondria assessed as reversal of CuCl2/ascorbic acid-induced reduction in ICDH level at 8.25 uM using isocitrate as substrate after 1 hr (reference value: 65.58%); format: functional, subcellular; set-up: scale not given: the % may be the effect or the level left; details: Capra hircus, Heart, Mitochrondria
[19] = Antioxidant activity in pH 7.4 potassium phosphate buffer assessed as CuCl2/ascorbic acid induced hydroxyl radical scavenging activity by measuring trolox equivalent antioxidant capacity by measuring IC50 Trolox/IC50 test compound ratio in presence of deoxyribose by thiobarbituric acid based absorbance analysis; format: functional
Mitochondria [20] = assay: as §1, with “33” for “66”, “uM incubated for 1 hr and” for “uM”; format: functional, subcellular; details: Capra hircus, Heart, Mitochrondria
Mitochondria [21] = assay: Antioxidant activity in goat cardiac mitochondria assessed as reversal of CuCl2/ascorbic acid-induced reduction in PDH level at 8.25 uM using sodium pyruvate as substrate after 1 hr by spectrophotometric analysis (reference value: 66.25%); format: functional, subcellular; set-up: scale not given: the % may be the effect or the level left; details: Capra hircus, Heart, Mitochrondria
Mitochondria [22] = assay: Antioxidant activity in goat cardiac mitochondria assessed as reversal of CuCl2/ascorbic acid-induced reduction in GSH level at 16.5 uM after 1 hr by DTNB reagent based method relative to control; format: functional, subcellular; details: Capra hircus, Heart, Mitochrondria
Capra hircus [23] = species on record: Capra hircus; assay: Effect on alpha-ketoglutarate dehydrogenase in goat cardiac mitochondria assessed as reversal of CuCl2/ascorbic acid induced reduction in Vmax at 66 uM using alpha-ketoglutarate as substrate by Lineweaver-Burk double reciprocal plot analysis; details: Heart
Mitochondria [24] = assay: as §1, with “8.25” for “66”, “uM and” for “uM”, “(reference value: 72.41%)” for “relative to control”; format: functional, subcellular; set-up: scale not given: the % may be the effect or the level left; details: Capra hircus, Heart, Mitochrondria
Mitochondria [25] = assay: Antioxidant activity in goat cardiac mitochondria assessed as reversal of CuCl2/ascorbic acid-induced reduction in alpha-KGDH level at 66 uM using alpha-ketoglutarate as substrate after 1 hr relative to control; format: functional, subcellular; details: Capra hircus, Heart, Mitochrondria
[26] = Inhibition of succinate dehydrogenase in goat cardiac mitochondria assessed as effect on Vmax at 66 uM using succinate as substrate after 1 hr by Lineweaver-Burk double reciprocal plot analysis; set-up: species or system Capra hircus, Heart
Mitochondria [27] = assay: Antioxidant activity in goat cardiac mitochondria assessed as reversal of CuCl2/ascorbic acid-induced reduction in alpha-KGDH level at 8.25 uM using alpha-ketoglutarate as substrate after 1 hr (reference value: 69.78%); format: functional, subcellular; set-up: scale not given: the % may be the effect or the level left; details: Capra hircus, Heart, Mitochrondria
Mitochondria [28] = assay: Protective activity in goat cardiac mitochondria assessed as reduction in CuCl2/ascorbic acid-induced calcium accumulation at 66 uM after 60 min (reference value: 25.32%); format: functional, subcellular; set-up: scale not given: the % may be the effect or the level left; details: Capra hircus, Heart, Mitochrondria
Mitochondria [29] = assay: Antioxidant activity in goat cardiac mitochondria assessed as reversal of CuCl2/ascorbic acid-induced reduction in PDH level at 33 uM using sodium pyruvate as substrate after 1 hr by spectrophotometric analysis relative to control; format: functional, subcellular; details: Capra hircus, Heart, Mitochrondria
Mitochondria [30] = assay: Antioxidant activity in goat cardiac mitochondria assessed as inhibition of CuCl2/ascorbic acid-induced lipid peroxidation at 33 uM after 1 hr by thiobarbituric acid based UV-Visible spectrophotometric method (reference value: 60.11%); format: functional, subcellular; details: Capra hircus, Heart, Mitochrondria
[31] = Binding affinity to Cu2+ assessed as binding constant K2 at 66 uM in presence of CuCl2 by isothermal titration calorimetry
[32] = Antioxidant activity in pH 7.4 phosphate buffer assessed as DPPH radical scavenging activity after 30 mins by spectrophotometric analysis; format: functional
Capra hircus [33] = species on record: Capra hircus; assay: Effect on PDH in goat cardiac mitochondria assessed as reversal of CuCl2/ascorbic acid induced reduction in Vmax at 66 uM using sodium pyruvate as substrate after 1 hr by Lineweaver-Burk double reciprocal plot analysis; details: Heart
Mitochondria [34] = assay: Antioxidant activity in goat cardiac mitochondria assessed as inhibition of CuCl2/ascorbic acid-induced protein carbonyl content at 16.5 uM after 1 hr by DNPH assay relative to control; format: functional, subcellular; details: Capra hircus, Heart, Mitochrondria

K [5]: 8.7 ×10⁴ /M | fold change (FC) (Mitochondria [6]): 5.12 | Activity (Mitochondria [9]): 85.2% | Activity (Capra hircus [11]): Active | Activity (Capra hircus [13]): Active | fold change (FC) (Mitochondria [20]): 3.5 | Activity (Capra hircus [23]): Active | Activity (Mitochondria [24]): 56.2% | inhibition (INH) [26]: Not Active | K [31]: 9.55 ×10⁴ /M | IC50 [32]: 46.4 µM | Activity (Capra hircus [33]): Active
SMILES: CCOC(=O)c1c(-c2ccc(O)c(OC)c2)cn2c1c(=O)oc1ccccc12
Activity [1]: Active | inhibition (Mitochondria [2]): 12.3% | Activity [3]: Non-Toxic | fold change (FC) (Mitochondria [4]): 2.4 | Activity [7]: Non-Toxic | Activity [8]: Non-Toxic | Activity [10]: Non-Toxic | fold change (FC) (Mitochondria [12]): 4.42 | Ratio IC50 [14]: 0.78 | Activity (Mitochondria [15]): Active | Activity [16]: Dose-dependent effect | Activity [17]: Non-Toxic | Activity (Mitochondria [18]): 37.7% | Ratio IC50 [19]: 0.9 | Activity (Mitochondria [21]): 49.3% | fold change (FC) (Mitochondria [22]): 3.06 | fold change (FC) (Mitochondria [25]): 4.62 | Activity (Mitochondria [27]): 43.1% | Activity (Mitochondria [28]): 15% | fold change (FC) (Mitochondria [29]): 2.94 | inhibition (Mitochondria [30]): 28.2% | Activity [32]: Dose-dependent effect | MEC [32]: 66 µM | inhibition (Mitochondria [34]): 44%
